Publication PMC10703884, “Targeting the COMMD4–H2B protein complex in lung cancer” (British Journal of Cancer, 2023)
No end group written: not given here.

Experiments:
HBEC3-KT cells = assay: CellTiter-Glo 2.0 luminescent cell viability after IR, HBEC3-KT cells; assay type: cell-based, Human; settings: CellTiter-Glo 2.0, 48 h post-irradiation, three independent experiments
Experimental: (§1) H1299, CRL5889 and H460 cells were cultured in Roswell Park Memorial Institute (RPMI) 1640 medium (Life Technologies) containing 10% foetal bovine serum (Thermo Fisher Scientific). Human bronchial epithelial cells (HBEC3-KT) were maintained in keratinocyte serum-free medium supplemented with epidermal growth factor and bovine pituitary extract (Life Technologies). The histology features and origin of all cell lines used have been previously described. Cell lines were authenticated using STR profiling. Cells were grown in a humidified incubator at 37 °C/5% CO2 atmosphere. All cell lines were verified to be free of mycoplasma contamination.
Irradiations were done at room temperature using a ^137Cs source (Gammacell 40 Exactor [MDS Nordion]; dose rate 1.1 Gy/min). […]
For siRNA transfections, cells were transfected with negative control or COMMD4 siRNA #2 (CCAUGUCCCUCUCAGCAGA[dT][dT] MISSION® siRNA, Sigma-Aldrich) using RNAiMax (Life Technologies) as previously described and samples were analysed 48 to 72 h post-transfection. […] Cells were mock-transfected, or transfected with FLAG-H2BWT/FLAG-H2BMUT1, or COMMD4-FLAG/A70K with FuGENE® HD (Promega) using the manufacturer’s protocol and analysed 24 h post-transfection.
A CellTiter-Glo 2.0 Luminescent assay (Promega Corporation) was carried out as previously described. […] Luminescence was measured using a PHERAstar FSX detection system (BMG Labtech). […]

GST-COMMD4 = assay: FLAG immunoprecipitation, FLAG-H2B constructs with COMMD4; assay type: binding; settings: FLAG-H2B immunoprecipitated from HEK293T cells, anti-FLAG M2 Dynabeads, 4 °C, immunoblot for GST-COMMD4 and FLAG
Experimental: (§2) For siRNA transfections, cells were transfected with negative control or COMMD4 siRNA #2 (CCAUGUCCCUCUCAGCAGA[dT][dT] MISSION® siRNA, Sigma-Aldrich) using RNAiMax (Life Technologies) as previously described and samples were analysed 48 to 72 h post-transfection. The H2B wild-type (FLAG-H2BWT) and mutant (FLAG-H2BMUT1) expression constructs were generated with the 10-amino acid peptide and the corresponding mutant cloned into the expression vector pCDNA3.1/(+)-N-DYK containing an N-terminal FLAG tag and a C-terminal nuclear localisation signal (AAKRVKLDS) (GenScript). A70K FLAG-COMMD4 expression construct was generated by mutating the corresponding COMMD4-FLAG construct to harbour an A70K mutation (GenScript). Cells were mock-transfected, or transfected with FLAG-H2BWT/FLAG-H2BMUT1, or COMMD4-FLAG/A70K with FuGENE® HD (Promega) using the manufacturer’s protocol and analysed 24 h post-transfection.
Co-immunoprecipitations were performed as previously summarised, using ice-cold NP40 buffer. Assays for co-immunoprecipitations were performed at 4 °C from HEK293T, transiently expressing the FLAG-H2B WT or MUT plasmid. Proteins were captured using anti-FLAG M2 Dynabeads (ThermoFisher) and washed three times in NP40 buffer prior to analysis. […]

[1] = test system: H460, H1299 and CRL5889 NSCLC cells; assay: Annexin V-FITC / propidium iodide apoptosis, NSCLC cells; assay type: cell-based; settings: flow cytometry, three independent experiments
Experimental: as §2, with “A70K FLAG-COMMD4 expression construct was generated by mutating the corresponding COMMD4-FLAG construct to harbour an A70K mutation (GenScript).” left out
The Annexin V-FITC apoptosis kit (United Bioresearch, ALX-850-020-K101, Enzo Life Sciences, Farmingdale, NY, USA) was used to measure viable and apoptotic cells, as previously described. […] CytExpert 2.0 software was used for data acquisition and analysed using the FlowJo v10 software.
Fig. 5 Induction of mitotic catastrophe and apoptosis in NSCLC cells. a Emerin and phalloidin staining respectively in three NSCLC and control HBEC3-KT cells. […] Asterix (*) denotes *P < 0.05 and ** P < 0.005 from 100 cells counted. […] The live cells were stained with Annexin V-FITC and propidium iodide and analysed by flow cytometer. […]

[2] = test system: H460, H1299 and CRL5889 NSCLC cells; assay: Clonogenic cell viability after IR, NSCLC cells; assay type: cell-based; settings: varying IR doses, 7–10 days recovery, three independent experiments, compared to control siRNA or FLAG-H2BMUT1/mock
Experimental: as §1
Irradiations were done at room temperature using a ^137Cs source (Gammacell 40 Exactor [MDS Nordion]; dose rate 1.1 Gy/min). Phalloidin-Atto 488 was purchased from Sigma-Aldrich and Hoechst 33342 was purchased from Thermo Fisher Scientific.
For siRNA transfections, cells were transfected with negative control or COMMD4 siRNA #2 (CCAUGUCCCUCUCAGCAGA[dT][dT] MISSION® siRNA, Sigma-Aldrich) using RNAiMax (Life Technologies) as previously described and samples were analysed 48 to 72 h post-transfection. […] Cells were mock-transfected, or transfected with FLAG-H2BWT/FLAG-H2BMUT1, or COMMD4-FLAG/A70K with FuGENE® HD (Promega) using the manufacturer’s protocol and analysed 24 h post-transfection. […]

“FLAG-H2BWT: 10-amino acid peptide cloned into expression vector containing an N-terminal FLAG tag and a C-terminal nuclear localisation signal ({FLAG}-SFVNDIFERIAAKRVKLDS)” was tested, and the “sensitivity to ionising radiation (luminescent viability)” value (HBEC3-KT cells) was “not hypersensitive”, the “binding of overexpressed FLAG-H2B construct to COMMD4” value (GST-COMMD4) was “interacted with COMMD4” and the “early and late apoptosis” value [1] was “significantly increased early and late apoptosis compared to FLAG-H2BMUT1 and mock-transfected cells”. The “sensitivity to ionising radiation (clonogenic viability)” value [2] was “resulted in a similar phenotype to COMMD4 siRNA depletion, albeit less pronounced, where hypersensitivity to IR was observed relative to cells expressing the mutant peptide (FLAG-H2BMUT1)”.
